One experiment addresses EP4 (Homo sapiens (Human), UniProt P35408). Briefly: hEP4 cAMP assay (BT549 breast cancer cells, HTRF cAMP). The format is cell-based. The note with it: antagonistic activity; mean values where measured multiple times. On the procedure: Plate is pre-incubated 45 minutes at room temperature. Subsequently, 2.5 microliters of PGE2 (final conc. 6 nM) are transferred into the assay plate. Plate is incubated 30 minutes at room temperature.
(In general: Cyclic AMP is a second messenger, typically raised through Gs and lowered through Gi signalling.)

Another experiment concerns the target EP2 (Homo sapiens (Human), UniProt P43116).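 Note: antagonism of PGE2-stimulated cAMP accumulation in SF295 human glioblastoma cells with endogenous EP2, cAMP read by HTRF, expressed relative to DMSO control.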

Chain of EP2 (P43116 whole entry): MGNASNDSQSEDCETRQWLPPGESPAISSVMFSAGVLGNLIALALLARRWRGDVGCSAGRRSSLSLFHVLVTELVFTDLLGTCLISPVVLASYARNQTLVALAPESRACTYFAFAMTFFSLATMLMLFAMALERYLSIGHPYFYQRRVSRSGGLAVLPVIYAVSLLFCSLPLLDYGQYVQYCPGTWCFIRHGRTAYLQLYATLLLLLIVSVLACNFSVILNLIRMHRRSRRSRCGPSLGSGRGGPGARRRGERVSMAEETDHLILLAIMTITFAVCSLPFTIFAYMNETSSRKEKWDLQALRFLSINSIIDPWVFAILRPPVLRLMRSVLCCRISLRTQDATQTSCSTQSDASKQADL
Chain of EP4 (P35408 whole entry): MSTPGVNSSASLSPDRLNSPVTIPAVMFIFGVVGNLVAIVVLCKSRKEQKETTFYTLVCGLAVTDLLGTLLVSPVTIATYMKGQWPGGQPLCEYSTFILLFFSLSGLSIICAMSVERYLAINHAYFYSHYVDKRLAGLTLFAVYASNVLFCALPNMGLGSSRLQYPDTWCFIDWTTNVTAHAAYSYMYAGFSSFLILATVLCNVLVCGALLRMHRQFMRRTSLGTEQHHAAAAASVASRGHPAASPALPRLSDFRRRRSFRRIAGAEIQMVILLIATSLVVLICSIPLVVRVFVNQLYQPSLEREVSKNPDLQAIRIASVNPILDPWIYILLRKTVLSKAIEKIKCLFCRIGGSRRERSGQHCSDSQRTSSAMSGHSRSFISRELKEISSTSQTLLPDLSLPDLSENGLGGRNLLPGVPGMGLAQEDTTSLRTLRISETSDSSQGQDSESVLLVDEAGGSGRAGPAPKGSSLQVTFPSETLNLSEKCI

In general, IC50 refers to the concentration that gives 50% inhibition. The low end stands for greater potency, the high end for weaker potency. As to `COc1cc(F)cc2c1cc(C)n2CCNc1cc(-c2ccc(-c3nc(C(=O)O)cs3)cc2)ncn1` [compound 579], the half-maximal inhibitory concentration (IC50) on EP4 worked out at 41 nM; on EP2, 11 nM.
For the compound `COc1ccc(F)c2c1cc(C)n2CCNc1cc(-c2ccc(-c3nc(C(=O)O)cs3)cc2)ncn1` [compound 580], the IC50 on EP4 came out at 32 nM; against EP2, 4 nM.
For `COc1cc(F)cc2c1cc(C)n2CCNc1cc(-c2ccc(-c3c[nH]c(C)n3)cc2)ncn1` [compound 581] the same measures were 33 nM and 5 nM.
On to `COc1cc(F)cc2c1cc(C)n2CCNc1cc(-c2ccc(-c3cncn3C)cc2)ncn1` [compound 582], for which the half-inhibitory concentration (IC50) on EP4 was found to be 161 nM; against EP2 it was 50 nM.
For `COc1cc(F)cc2c1cc(C)n2CCNc1cc(-c2ccc(-c3cc(C)[nH]n3)cc2)ncn1` [compound 583] the same measures were 65 nM and 10 nM.
Regarding `COc1ccc(F)c2c1cc(C)n2CCNc1cc(-c2ccc(-c3cncn3C)cc2)ncn1` [compound 584], the IC50 on EP4 turned out to be 148 nM; against EP2, 39 nM.
For `COc1cc(F)cc2c1cc(C)n2CCNc1cc(-c2ccc(-c3coc(C)n3)cc2)ncn1` [compound 585] the same measures were 203 nM and 31 nM.
For `CCOc1cc(-c2cc(NCCn3c(C)cc4c(OC)ccc(F)c43)ncn2)ccc1CNCC(C)C` [compound 586], the 50% inhibitory concentration (IC50) at EP4 was 865 nM; against EP2, 729 nM.
As to `COc1cc(F)cc2c1cc(C)n2CCNc1cc(-c2ccc(C(=O)O)c(NCC(F)(F)F)c2)ncn1` [compound 587, 4-{6-[2-(6-Fluoro-4-methoxy-2-methyl-indol-1-yl)-ethylamino]-pyrimidin-4-yl}-2-(2,2,2-trifluoro-ethylamino)-benzoic acid], the results for the IC50 at EP4 and on EP2 were 106 nM and 2 nM, respectively.
With `COc1ccc(F)c2c1cc(C)n2CCNc1cc(-c2ccc(C(=O)O)c(NCC(F)(F)F)c2)ncn1` [compound 588, 4-{6-[2-(7-Fluoro-4-methoxy-2-methyl-indol-1-yl)-ethylamino]-pyrimidin-4-yl}-2-(2,2,2-trifluoro-ethylamino)-benzoic acid], the IC50 on EP4 turned out to be 92 nM; against EP2 it was 2 nM.
`CCOc1cc(-c2cc(NCCn3c(C)cc4c(OC)ccc(F)c43)ncn2)ccc1CNCCOC` [compound 589]: the results for the half-inhibitory concentration (IC50) against EP4 and against EP2 were 707 nM and 228 nM, respectively.
For `COc1ccc(F)c2c1cc(C)n2CCNc1cc(-c2ccc(-c3ccccn3)cc2)ncn1` [compound 590] the same measures were 178 nM and 18 nM.
For `CNS(=O)(=O)c1ccc(-c2cc(NCCn3c(C)cc4c(OC)ccc(F)c43)ncn2)cc1C(F)(F)F` [compound 591, 4-{6-[2-(7-Fluoro-4-methoxy-2-methyl-indol-1-yl)-ethylamino]-pyrimidin-4-yl}-N-methyl-2-trifluoromethyl-benzenesulfonamide] the same measures were 294 nM and 33 nM.
With `CNc1nnc(-c2ccc(-c3cc(NCCn4c(C)cc5c(C)cc(F)cc54)ncn3)cc2)s1` [compound 592], the figures for the IC50 at EP4 and on EP2 were 39 nM and 13 nM, respectively.
In the case of `COc1ccc(F)c2c1cc(C)n2CCNc1cc(-c2ccc(-c3n[nH]cc3C(=O)O)cc2)ncn1` [compound 593], the IC50 stood at 435 nM against EP4 and 157 nM on EP2.
Take `COc1ccc(F)c2c1cc(C)n2CCNc1cc(-c2ccc(-c3cc(C(=O)O)[nH]n3)cc2)ncn1` [compound 594]: the half-inhibitory concentration (IC50) at EP4 is 42 nM; against EP2, 190 nM.
Turning to `COc1ccc(F)c2c1cc(C)n2CCNc1cc(-c2ccc(C(=O)O)c(OC3CCCC3)c2)ncn1` [compound 595, 2-Cyclopentyloxy-4-{6-[2-(7-fluoro-4-methoxy-2-methyl-indol-1-yl)-ethylamino]-pyrimidin-4-yl}-benzoic acid], the half-maximal inhibitory concentration (IC50) on EP4 is 73 nM; on EP2, 10 nM.
In the case of `COc1ccc(F)c2c1cc(C)n2CCNc1cc(-c2ccc(-c3onc(C)c3C(=O)O)cc2)ncn1` [compound 596], the values for the half-maximal inhibitory concentration (IC50) on EP4 and on EP2 were 222 nM and 10 nM, respectively.
For the compound `CCOc1cc(-c2cc(NCCn3c(C)cc4c(OC)ccc(F)c43)ncn2)ccc1CNC1CCC1` [compound 597], the IC50 at EP4 amounted to 719 nM; against EP2 it was 175 nM.
For `COc1cccc2c1cc(C)n2CCNc1cc(-c2ccc(C(=O)O)c(OC(F)F)c2)ncn1` [compound 598] the same measures were 336 nM and 2 nM.
On to `CCOc1cc(-c2cc(NCCn3c(C)cc4c(OC)cccc43)ncn2)cc(Cl)c1C(=O)O` [compound 599], for which the 50% inhibitory concentration (IC50) on EP4 came to 196 nM; on EP2 it was 13 nM.
Take `Cc1cc(F)cc2c1cc(C)n2CCNc1cc(-c2ccc(C(=O)O)c(OC(F)F)c2)ncn1` [compound 600]: the half-maximal inhibitory concentration (IC50) at EP4 was 319 nM; on EP2 it was 14 nM.
Take `Cc1ccc(F)c2c1cc(C)n2CCNc1cc(-c2ccc(C(=O)O)c(OC(F)F)c2)ncn1` [compound 601]: the results for the IC50 against EP4 and at EP2 were 122 nM and 12 nM, respectively.
For the compound `CCS(=O)(=O)Nc1cc(-c2cc(NCCn3c(C)cc4c(C)ccc(F)c43)ncn2)ccc1C(=O)O` [compound 602], the half-maximal inhibitory concentration (IC50) against EP4 came to 805 nM; against EP2, 163 nM.
As to `COc1cc(F)cc2c1cc(C#N)n2CCNc1cc(-c2ccc(C(=O)O)c(CC(C)C)c2)ncn1` [compound 603], the IC50 against EP4 worked out at 15 nM; at EP2, 41 nM.
Turning to `COc1cc(F)cc2c1cc(C)n2CCNc1cc(-c2ccc(C(=O)O)c(OC(F)(F)F)c2)ncn1` [compound 604], the concentration for half-maximal inhibition (IC50) against EP4 came to 325 nM; against EP2, 16 nM.
Turning to `COc1ccc(Cl)c2c1cc(C)n2CCNc1cc(-c2ccc(C(=O)O)c(OC(F)(F)F)c2)ncn1` [compound 605], the figures for the IC50 on EP4 and against EP2 were 829 nM and 48 nM, respectively.
For `COc1ccc(F)c2c1cc(C)n2CCNc1cc(-c2ccc(C(=O)O)c(OC(F)(F)F)c2)ncn1` [compound 606], the IC50 against EP4 is 186 nM; at EP2, 8 nM.
As for `CCCOc1cc(-c2cc(NCCn3c(C)cc4c(OC)cc(F)cc43)ncn2)cc(Cl)c1C(=O)O` [compound 607], the IC50 against EP4 was 111 nM; against EP2 it was 25 nM.
For `CCCOc1cc(-c2cc(NCCn3c(C)cc4c(OC)cc(F)cc43)ncn2)cc(F)c1C(=O)O` [compound 608] the same measures were 126 nM and 24 nM.
Consider `CCCOc1cc(-c2cc(NCCn3c(C)cc4c(OC)ccc(F)c43)ncn2)cc(Cl)c1C(=O)O` [compound 609], for which the results for the IC50 against EP4 and on EP2 were 42 nM and 10 nM, respectively.
Consider `CCCOc1cc(-c2cc(NCCn3c(C)cc4c(OC)ccc(F)c43)ncn2)cc(F)c1C(=O)O` [compound 610], for which the IC50 against EP4 was found to be 139 nM; at EP2, 22 nM.
`CCCCOc1cc(-c2cc(NCCn3c(C)cc4c(OC)cc(F)cc43)ncn2)ccc1C(=O)O` [compound 611]: the figures for the IC50 at EP4 and on EP2 were 56 nM and 4 nM, respectively.
For the compound `COc1cc(F)cc2c1cc(C)n2CCNc1cc(-c2ccc(C(=O)O)c(OCC(C)C)c2)ncn1` [compound 612], the figures for the IC50 against EP4 and against EP2 were 79 nM and 8 nM, respectively.
Take `CCCCOc1cc(-c2cc(NCCn3c(C)cc4c(OC)ccc(Cl)c43)ncn2)ccc1C(=O)O` [compound 613]: the IC50 on EP4 amounted to 221 nM; against EP2 it was 4 nM.
On to `COc1ccc(Cl)c2c1cc(C)n2CCNc1cc(-c2ccc(C(=O)O)c(OCC(C)C)c2)ncn1` [compound 614], for which the IC50 on EP4 turned out to be 193 nM; at EP2, 12 nM.
As to `CCCCOc1cc(-c2cc(NCCn3c(C)cc4c(OC)ccc(F)c43)ncn2)ccc1C(=O)O` [compound 615], the IC50 at EP4 was determined as 39 nM; against EP2, 2 nM.
Turning to `COc1ccc(F)c2c1cc(C)n2CCNc1cc(-c2ccc(C(=O)O)c(OCC(C)C)c2)ncn1` [compound 616], the half-inhibitory concentration (IC50) at EP4 was found to be 85 nM; against EP2 it was 5 nM.
For the compound `CCOc1cc(-c2cc(NCCn3c(C)cc4c(OC)ccc(Cl)c43)ncn2)cc(CC)c1C(=O)O` [compound 617], the IC50 against EP4 came to 952 nM; on EP2, 60 nM.
For `CCOc1cc(-c2cc(NCCn3c(C)cc4c(OC)ccc(F)c43)ncn2)cc(CC)c1C(=O)O` [compound 618] the same measures were 395 nM and 24 nM.
For the compound `CCCc1cc(-c2cc(NCCn3c(C)cc4c(OC)ccc(F)c43)ncn2)cc(OC)c1C(=O)O` [compound 619], the 50% inhibitory concentration (IC50) stood at 249 nM against EP4 and 9 nM at EP2.
As for `CCCOc1cc(-c2cc(NCCn3c(C)cc4c(F)cc(F)c(F)c43)ncn2)cc(Cl)c1C(=O)O` [compound 620], the IC50 turned out to be 561 nM at EP4 and 6 nM against EP2.
As for `COc1cc(F)c(F)c2c1cc(C)n2CCNc1cc(-c2ccc(C(=O)O)c(CC(C)C)c2)ncn1` [compound 621], the figures for the IC50 on EP4 and against EP2 were 57 nM and 34 nM, respectively.
`COc1c(Cl)cc(F)c2c1cc(C)n2CCNc1cc(-c2ccc(C(=O)O)c(CC(C)C)c2)ncn1` [compound 622]: the IC50 on EP4 stood at 303 nM; on EP2 it was 732 nM.
Consider `COc1cc(F)cc2c1cc(C)n2CCNc1cc(-c2ccc(C(=O)O)c(CC(C)C)c2)nc(C)n1` [compound 623], for which the concentration for half-maximal inhibition (IC50) against EP4 amounted to 130 nM; on EP2, 45 nM.
For `CCCc1cc(-c2cc(NCCn3c(C)cc4c(C)ccc(F)c43)ncn2)cc(OCC)c1C(=O)O` [compound 624] the same measures were 501 nM and 48 nM.
For the compound `COc1ccc(F)c2c1cc(C)n2CCNc1cc(-c2ccc(C(=O)O)c(CC(C)C)c2)nc(C)n1` [compound 625], the IC50 at EP4 was 70 nM; against EP2 it was 16 nM.
For `CCOc1cc(-c2cc(NCCn3c(C)cc4c(C)cc(F)cc43)nc(C(F)(F)F)n2)sc1C(=O)O` [compound 626] the same measures were 356 nM and 51 nM.
As to `CCCOc1cc(-c2cc(NCCn3c(C)cc4c(C)cc(F)c(F)c43)ncn2)cc(F)c1C(=O)O` [compound 627], the half-inhibitory concentration (IC50) on EP4 came out at 197 nM; against EP2, 48 nM.

Source of the values: patent publication US12011444B2, “N-substituted indole derivatives as PGE2 receptor modulators” (Idorsia Pharmaceuticals Ltd, priority 2015, dated 2024).
